Read-outs that look alike come from different tables or passages of the source.
Tests used:
[1] = background statement (well known; Clariant introduction), cited from earlier work
[2] = Octopirox® degradation under cool white light; format: physicochemical; conditions: cool white light (indoor light), 24 hours, room temperature, LCMS / UPLC-UV
Procedure: Cool White Light Treatment:
The cool white light (CWL) irradiation was carried out in an X-Rite (Macbeth) Spectra Light III chamber. CWL mode was chosen which provides stable irradiation mimicking the indoor light. The intensity of light was fixed which estimated at 6 μw/cm2 for UVA and 1.5 μw/cm^2 for UVB. The chamber temperature was equal to the room temperature ([…]). The sample was placed in a line close to the center of the chamber. After 24 hours, the sample was analyzed by LCMS (Water UPLC coupled with Quatro Micro MS)., by quantitatively measured using UPLC-UV analysis following DPS derivatization.
The separation was performed by a UPLC BEH C18 column and the mobile phase was acetonitrile/water (60/40, 0.1% formic acid) in isocratic elution. Electrospray ionization in positive mode was applied for MS scan.

THP1-XBlue™ cells = assay: Anti-inflammation efficacy in THP-1 in vitro assay (LPS co-treatment, IL-6 ELISA); format: cell-based; conditions: co-treated with E. coli LPS, PMA-differentiated THP1-XBlue cells, 24 hours, supernatant ELISA, LPS alone 3253.4
Procedure: The following procedure was used to test the anti-inflammation efficacy of the compound:
THP1-XBlue™ (Cat No: thpx-sp, InvivoGen) cells were cultured as suspense in RPMI 1640 medium supplemented with 10% FBS, penicillin (10 U/mL)—streptomycin (10 μg/ML). Cells were differentiated in 24-well plates at the density of 5×10^5 cells/well with 100 nM PMA for 72 hours. Cells were then co-treated with pure E. coli ipopolysaccharides (LPS) and with the compound inside the invention. After 24 hours, the supernatants were collected and measured for interleukin (IL)-6 as pro-inflammatory bio-marker using enzyme-linked immunosorbent assay (ELISA).

SMILES	light stability [1]	light stability ([1]; listed as piroctone olamine)	quantity of Octopirox® after cool white light irradiation [2]	Concentration of IL-6 (THP1-XBlue™ cells; 5 μM of the compound)	Concentration of IL-6 (THP1-XBlue™ cells; 10 μM of the compound)
Cc1cc(CC(C)CC(C)(C)C)n(O)c(=O)c1.NCCO (centres unmarked) [Octopirox®, piroctone olamine]	unstable under light	light instable	reduced	–	–
Cc1cc(O)nc(CC(C)CC(C)(C)C)c1 (centres unmarked) [the compound]	–	–	–	3083.3 pg/mL	1405.3 pg/mL
